The target of assay [1] is A. niger Fdc^UbiX (A. niger Fdc1) (Aspergillus niger, UniProt A2QHE5). The experiment in a line: UV-Vis and activity, reversible inhibition. The format is biochemical. Particulars: prFMN-loaded enzyme.
Assay [2] addresses Aspergillus niger Fdc1 (Aspergillus niger) (UniProt A2QHE5). Description: native MS.

Consider `O=CCc1ccccc1` [phenylacetaldehyde], for which the “UV-Vis and activity, reversible inhibition” value in assay [1] is “incubation with phenylpyruvate or phenylacetaldehyde leads to reversible enzyme inhibition”. Turning to “Aspergillus niger Fdc1 (from UniProt A2QHE5 1-500) (enzyme)”, in assay [2], the stoichiometry N was 2.
